Results: publication PMC8500670, “A selective WDR5 degrader inhibits acute myeloid leukemia in patient-derived mouse models” (Science translational medicine, 2021)

Legend:
Experiment in all cases: biochemical
Parameters in all cases: protein methyltransferase inhibition panel, single concentration, duplicate
NSD2 = biological target: T1, NSD2 (Homo sapiens, UniProt O96028)
T1 sequence (O96028 1-1365): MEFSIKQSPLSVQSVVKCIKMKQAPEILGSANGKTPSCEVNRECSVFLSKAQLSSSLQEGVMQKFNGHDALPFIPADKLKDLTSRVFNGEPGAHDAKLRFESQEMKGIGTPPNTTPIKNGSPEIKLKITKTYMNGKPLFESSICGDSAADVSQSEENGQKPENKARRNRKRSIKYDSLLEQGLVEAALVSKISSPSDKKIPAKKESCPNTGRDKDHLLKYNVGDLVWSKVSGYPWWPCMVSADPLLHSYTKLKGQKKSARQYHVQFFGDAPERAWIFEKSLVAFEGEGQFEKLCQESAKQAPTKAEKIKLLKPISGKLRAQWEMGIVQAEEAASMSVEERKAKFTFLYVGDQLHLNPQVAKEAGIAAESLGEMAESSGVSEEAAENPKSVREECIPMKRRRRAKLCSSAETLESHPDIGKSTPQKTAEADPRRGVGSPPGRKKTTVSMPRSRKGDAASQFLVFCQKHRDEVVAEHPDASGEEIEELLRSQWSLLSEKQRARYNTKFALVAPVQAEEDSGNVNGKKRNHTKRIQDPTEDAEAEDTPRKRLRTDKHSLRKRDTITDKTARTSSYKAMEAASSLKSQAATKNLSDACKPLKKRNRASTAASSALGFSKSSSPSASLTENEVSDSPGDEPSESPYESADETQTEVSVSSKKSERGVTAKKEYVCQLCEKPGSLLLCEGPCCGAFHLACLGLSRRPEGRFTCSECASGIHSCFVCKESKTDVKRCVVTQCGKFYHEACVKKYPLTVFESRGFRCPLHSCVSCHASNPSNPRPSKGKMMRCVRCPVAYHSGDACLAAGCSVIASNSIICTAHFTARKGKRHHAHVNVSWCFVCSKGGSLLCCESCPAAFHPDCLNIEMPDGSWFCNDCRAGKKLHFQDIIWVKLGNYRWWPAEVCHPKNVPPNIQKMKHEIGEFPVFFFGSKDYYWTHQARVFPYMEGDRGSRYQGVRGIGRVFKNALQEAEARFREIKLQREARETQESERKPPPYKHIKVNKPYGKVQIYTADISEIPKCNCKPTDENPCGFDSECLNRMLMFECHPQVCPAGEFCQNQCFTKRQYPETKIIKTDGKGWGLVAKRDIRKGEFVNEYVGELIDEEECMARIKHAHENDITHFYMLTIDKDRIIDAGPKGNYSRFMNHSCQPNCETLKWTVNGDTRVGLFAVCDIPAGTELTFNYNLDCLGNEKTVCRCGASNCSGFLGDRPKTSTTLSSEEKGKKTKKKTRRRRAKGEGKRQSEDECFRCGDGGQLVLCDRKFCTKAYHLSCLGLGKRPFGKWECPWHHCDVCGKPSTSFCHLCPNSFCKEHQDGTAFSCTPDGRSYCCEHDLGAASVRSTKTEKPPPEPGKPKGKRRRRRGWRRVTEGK
Experimental: (§1) We next assessed selectivity of MS67 against 22 protein methyltransferases (table S2) and a broad panel of common drug targets including 45 kinases (table S3) and 44 G protein–coupled receptors (GPCR), ion channels, and transporters (table S4). […] We subsequently determined that MS67 had moderate binding affinity (Ki = 1.0 ± 0.8 μM) to Sigma 2 receptor (fig. S10).

SET7/9 = biological target: T2, SET7/9 (Homo sapiens, UniProt Q8WTS6)
T2 construct: gene SETD7
T2 sequence (Q8WTS6 1-366): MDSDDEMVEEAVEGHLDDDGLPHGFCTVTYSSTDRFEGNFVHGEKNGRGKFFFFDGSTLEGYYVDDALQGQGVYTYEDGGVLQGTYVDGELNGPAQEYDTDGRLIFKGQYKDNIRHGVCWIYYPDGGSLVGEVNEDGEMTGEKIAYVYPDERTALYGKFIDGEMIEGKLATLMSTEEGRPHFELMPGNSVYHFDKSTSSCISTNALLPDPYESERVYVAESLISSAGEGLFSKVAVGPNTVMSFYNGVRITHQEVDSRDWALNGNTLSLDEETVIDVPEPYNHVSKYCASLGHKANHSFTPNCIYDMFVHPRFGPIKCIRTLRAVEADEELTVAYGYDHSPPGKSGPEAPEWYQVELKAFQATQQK
Experimental: as §1

SET8 = biological target: T3, SET8 (Homo sapiens, UniProt Q9NQR1)
T3 construct: gene KMT5A
T3 sequence (Q9NQR1 1-393): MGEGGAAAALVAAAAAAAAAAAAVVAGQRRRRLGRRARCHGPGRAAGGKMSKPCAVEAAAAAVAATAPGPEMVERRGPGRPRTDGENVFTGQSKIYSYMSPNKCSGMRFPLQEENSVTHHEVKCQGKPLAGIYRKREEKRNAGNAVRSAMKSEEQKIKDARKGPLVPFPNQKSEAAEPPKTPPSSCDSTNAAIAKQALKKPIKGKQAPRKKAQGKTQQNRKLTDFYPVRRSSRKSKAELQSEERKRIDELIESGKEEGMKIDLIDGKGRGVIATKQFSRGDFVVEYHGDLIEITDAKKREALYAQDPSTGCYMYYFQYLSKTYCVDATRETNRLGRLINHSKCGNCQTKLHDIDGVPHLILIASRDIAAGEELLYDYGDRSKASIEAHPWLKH
Experimental: as §1

Measured: inhibition at 10 µM

Cc1ncsc1-c1ccc([C@H](C)NC(=O)[C@@H]2C[C@@H](O)CN2C(=O)[C@@H](NC(=O)CNC(=O)c2ccc(F)c(-c3ccc(N4C[C@@H](C)N(C)[C@@H](C)C4)c(NC(=O)c4c[nH]c(=O)cc4C(F)(F)F)c3)c2)C(C)(C)C)cc1 [MS67]
< 10%: all assays above
